Experimental data reported in patent US20060128792A1, “Deguelin as a chemopreventive agent for lung cancer” (priority 2002, published 2006).
Values joined by “and” are separate entries in the source; they are usually repeats but may differ in a detail not shown here. Equal values may be shown once.

Tests used:
H596 = assay: MTT assay, growth inhibition by deguelin or deguelin derivatives; assay type: cell-based; conditions: H596, 3 days
H460 = assay: as above; assay type: cell-based; conditions: H460, 3 days
H226B = assay: as above; assay type: cell-based; conditions: 3 days
A549 = assay: as above; assay type: cell-based; conditions: A549, 3 days
H322 = assay: as above; assay type: cell-based; conditions: H322, 3 days
1799 cells = assay: MTT assay, viability of 1799 cells (also after Ad5CMV-MyrAkt-HA infection); assay type: cell-based
From the text: Cells and Cell Cultures. […] Tumors developed 6 months later. […] (Klein-Szanto et al., 1992).

[1] = tested on: caspase-3, PARP, Bax, Bcl-2, Bcl-xL in 1799 cells; assay: Western blot of caspase-3, PARP and Bcl family proteins; assay type: cell-based
Protocol: Immunoblotting. Whole cell lysates were prepared in lysis buffer (50 mM N-[2-hydroxymethyl]-piperazine-N′-[2-ethanesulfonic acid] [HEPES; pH 7.5], 150 mM NaCl, 1.5 mM MgCl2, ImM EDTA, 0.2 mM EGTA, 1% NP40, 10% glycerol, 1 mM dithiothreitol (DTT), 1 mM phenylmethylsulfonyl fluoride, 20 mM sodium fluoride, 5 mM sodium orthovanadate, 10 μg/ml aprotinin, 10 μg/ml leupeptin, 2 μg/ml pepstatin, and 1 mM benzamidine) as described previously (Lee et al., 2002). Equivalent protein concentrations were resolved in sodium dodecyl sulfate-polyacrylamide gels and transferred to a nitrocellulose membrane. After the blocking of transblotted membrane in Tris-buffered saline (TBS) containing 0.05% Tween 20 (TBST) and 5% low fat milk, themembrane was incubated with primary antibody at the appropriate dilution in TBS-5% low-fat milk at 4° C. for 16 h and washed with TBST. The immunoblots were visualized using the ECL kit (Amersham, Inc., Arlington Heights, III) according to the manufacturer's directions. Rabbit polyclonal antibodies against human pAkt (Ser473), Akt, and pGSK-3β (Ser9), and mouse monoclonal antibody against human anti-pMAPK (Thr202/Tyr204) were purchased from Cell Signalinng Technology (Beverly, Mass.). Rabbit polyclonal anti-glycogen synthase (GSK)-3 α/β (BD Transduction Laboratories, Lexington, Ky.), rabbit polyclonal anti-Bax and anti-caspase-3 antibodies (Pharmingen, San Diego, Calif.), rabbit polyclonal anti-Bcl2 and rabbit polyclonal anti-poly (ADP-ribose) polymerase O?ARP) antibody (VIC 5) (Roche Molecular Biochemicals, Indianapolis, Ind.), goat antibodies against Erk-1, Erk-2, and β-Actin (Santa Cruz Biotechnology, Inc., Santa Cruz, Calif.) were used for western blot analysis.

[2] = tested on: bFGF-induced angiogenesis; assay: Matrigel plug assay, bFGF-induced angiogenesis; assay type: in vivo, nude mice; conditions: 5 nmole deguelin plus bFGF, seven days
Protocol: Inhibition of angiogenesis by deguelin was also evaluated using the Matrigel™ plug assay, an established in vivo angiogenesis model, using nude mice. Matrigel alone was used as a negative control, 100 ng/ml bFGF and 72 units/ml heparin in a vehicle of 0.1% BSA/PBS (bFGF) for a positive control, 5 nmole deguelin alone, and 5 nmole deguelin plus bFGF were included. Seven days after injection, mice were sacrificed. […] 1, 1 and 10 μM concentrations of deguelin in these cells. All of these findings indicated the anti-angiogenic activity of deguelin.

HUVEC cells = assay: HUVEC proliferation, MTT assay; assay type: cell-based; conditions: 0.1, 1 and 10 μM, 3 days
Protocol: FIGS. 9A-9D.—Anti-angiogenic activity of deguelin. (FIG. 9A) CAMs after incubation with Thermanox coverslips containing vehicle (Con), deguelin ([…]) or RA (1 μg) as a positive control or for 48 h (circle indicate the placement of coverslip). (FIG. 9B) The anti-angiogenic effect of deguelin was evaluated by calculating the percentage of positive eggs. □ empty coverslip as control; ▪ RA 1 μg/egg; ▪ deguelin 1 or 5 nmole/egg. Each value represents the mean±SE. (FIG. 9C) Appearance of matrigel from mice. The effects of deguelin on bFGF-induced angiogenesis in vivo was analyzed by matrigel plug assay using nude mouse. Matrigel alone (Con)—negative control, 100 ng/ml bFGF and 72 units/ml heparin in a vehicle of 0.1% BSA/PBS (bFGF)—positive control, 5 niole deguelin alone, and 5 nmole deguelin plus bFGF were included. (FIG. 9D) Proliferation of HUVEC cells treated with indicated doses of deguelin for 3 days was analyzed by MTT assay. Bars, means±SD of a representative experiment done in triplicate from five independently performed experiments for each cell line.
Inhibition of angiogenesis by deguelin was also evaluated using the Matrigel™ plug assay, an established in vivo angiogenesis model, using nude mice. […]

## COc1cc2c(cc1OC)[C@@H]1C(=O)c3ccc4c(c3O[C@@H]1CO2)C=CC(C)(C)O4 [Deguelin]
H596; deguelin 10^−6M
  Avg. % con: 0.62 % con
  MTT value, mean of replicates (unheaded line): 0.290
  MTT value, replicate (unheaded line): 0.29 and 0.298 and 0.281
H596; deguelin 10^−8M
  Avg. % con: 0.67 % con
  MTT value, mean of replicates (unheaded line): 0.314
  MTT value, replicate (unheaded line): 0.324 and 0.311 and 0.307
H596; deguelin 10^−10M
  Avg. % con: 0.67 % con
  MTT value, mean of replicates (unheaded line): 0.313
  MTT value, replicate (unheaded line): 0.314 and 0.338 and 0.287
H596; deguelin 10^−12M
  Avg. % con: 0.76 % con
  MTT value, mean of replicates (unheaded line): 0.358
  MTT value, replicate (unheaded line): 0.386 and 0.372 and 0.317
H460; deguelin 10^−6M
  Avg. % con: 0.17 % con
  MTT value, mean of replicates (unheaded line): 0.129
  MTT value, replicate (unheaded line): 0.115 and 0.141 and 0.131
H460; deguelin 10^−8M
  Avg. % con: 0.86 % con
  MTT value, mean of replicates (unheaded line): 0.635
  MTT value, replicate (unheaded line): 0.632 and 0.652 and 0.62
H460; deguelin 10^−10M
  Avg. % con: 1.03 % con
  MTT value, mean of replicates (unheaded line): 0.762
  MTT value, replicate (unheaded line): 0.783 and 0.761 and 0.743
H460; deguelin 10^−12M
  Avg. % con: 1.06 % con
  MTT value, mean of replicates (unheaded line): 0.788
  MTT value, replicate (unheaded line): 0.797 and 0.75 and 0.816
H226B; deguelin 10^−6M
  Avg. % con: 0.34 % con
  MTT value, mean of replicates (unheaded line): 0.113
  MTT value, replicate (unheaded line): 0.117 (2×) and 0.106
H226B; deguelin 10^−8M
  Avg. % con: 0.46 % con
  MTT value, mean of replicates (unheaded line): 0.150
  MTT value, replicate (unheaded line): 0.153 and 0.147 and 0.149
H226B; deguelin 10^−10M
  Avg. % con: 0.86 % con
  MTT value, mean of replicates (unheaded line): 0.283
  MTT value, replicate (unheaded line): 0.295 and 0.282 and 0.272
H226B; deguelin 10^−12M
  Avg. % con: 0.91 % con
  MTT value, mean of replicates (unheaded line): 0.299
  MTT value, replicate (unheaded line): 0.274 and 0.32 and 0.304
A549; deguelin 10^−6M
  Avg. % con: 0.13 % con
  MTT value, mean of replicates (unheaded line): 0.060
  MTT value, replicate (unheaded line): 0.057 (2×) and 0.066
A549; deguelin 10^−8M
  Avg. % con: 0.83 % con
  MTT value, mean of replicates (unheaded line): 0.382
  MTT value, replicate (unheaded line): 0.381 (2×) and 0.385
A549; deguelin 10^−10M
  Avg. % con: 0.88 % con
  MTT value, mean of replicates (unheaded line): 0.408
  MTT value, replicate (unheaded line): 0.375 and 0.422 and 0.427
A549; deguelin 10^−12M
  Avg. % con: 0.89 % con
  MTT value, mean of replicates (unheaded line): 0.411
  MTT value, replicate (unheaded line): 0.416 and 0.404 and 0.412
H322; deguelin 10^−6M
  Avg. % con: 0.49 % con
  MTT value, mean of replicates (unheaded line): 0.094
  MTT value, replicate (unheaded line): 0.096 and 0.087 and 0.1
H322; deguelin 10^−8M
  Avg. % con: 0.89 % con
  MTT value, mean of replicates (unheaded line): 0.173
  MTT value, replicate (unheaded line): 0.172 (2×) and 0.174
H322; deguelin 10^−10M
  Avg. % con: 0.84 % con
  MTT value, mean of replicates (unheaded line): 0.163
  MTT value, replicate (unheaded line): 0.153 and 0.16 and 0.177
H322; deguelin 10^−12M
  Avg. % con: 0.86 % con
  MTT value, mean of replicates (unheaded line): 0.166
  MTT value, replicate (unheaded line): 0.168 and 0.16 and 0.17
1799 cells; 1 day, concentration as low as 10^−9 M
  viable number of 1799 cells: reduced
1799 cells; 48 h, 10^−7 M deguelin, 2 days, read-out: viable cells, 1799 cells infected with 5×10^3 particles/cell Ad5CMV-Myr.Akt.HA
  viability at 0.1 µM: > 80%
[1]
  Bcl-2 expression: mild decrease
  Bcl-xL level: not affected
  level of Bax: dose-dependent increase
[1]; more than 10^−8 M deguelin, 3 days
  32-kDa caspase-3 proenzyme (with increase of 89-kDa PARP fragment): significant decrease
[2]
  bFGF-induced angiogenesis in Matrigel plugs: markedly inhibit
HUVEC cells
  proliferation of HUVEC cells: Inhibition of cell proliferation was observed
